According to patent US20080234262A1 (Wyeth, priority 2007, published 2008):

Experiments:
prostate line LNCap = experiment: In vitro cell culture growth assay (MTS), LNCap; type: cell-based, human; conditions: LNCap cells, three days after drug treatment;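 further: viable cell density read by absorbance at 490 nm, growth expressed as percent of vehicle-treated cells on the same plate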
breast line MDA468 = experiment: In vitro cell culture growth assay (MTS), MDA468; type: cell-based, human; conditions: MDA468 cells, three days after drug treatment
Procedure, shortened: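 Growth measured as percent of same-plate vehicle control by MTS metabolic dye conversion (A490). Breast MDA468 and prostate LNCap cells, plated a day ahead, were exposed to compounds for 3 days.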

PI3K = PI3K (Homo sapiens, UniProt P42336); experiment: Fluorescence polarization assay for PI3K; type: biochemical; conditions: PI3Kα; read-out: PI3Kα IC50;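 further: PI3K kinase reaction on PIP2 with ATP, 30-60 min, product sensed by GST-GRP with red probe in fluorescence polarization (mP), controls without enzyme and at zero time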
PI3K, sequence (P42336 whole entry): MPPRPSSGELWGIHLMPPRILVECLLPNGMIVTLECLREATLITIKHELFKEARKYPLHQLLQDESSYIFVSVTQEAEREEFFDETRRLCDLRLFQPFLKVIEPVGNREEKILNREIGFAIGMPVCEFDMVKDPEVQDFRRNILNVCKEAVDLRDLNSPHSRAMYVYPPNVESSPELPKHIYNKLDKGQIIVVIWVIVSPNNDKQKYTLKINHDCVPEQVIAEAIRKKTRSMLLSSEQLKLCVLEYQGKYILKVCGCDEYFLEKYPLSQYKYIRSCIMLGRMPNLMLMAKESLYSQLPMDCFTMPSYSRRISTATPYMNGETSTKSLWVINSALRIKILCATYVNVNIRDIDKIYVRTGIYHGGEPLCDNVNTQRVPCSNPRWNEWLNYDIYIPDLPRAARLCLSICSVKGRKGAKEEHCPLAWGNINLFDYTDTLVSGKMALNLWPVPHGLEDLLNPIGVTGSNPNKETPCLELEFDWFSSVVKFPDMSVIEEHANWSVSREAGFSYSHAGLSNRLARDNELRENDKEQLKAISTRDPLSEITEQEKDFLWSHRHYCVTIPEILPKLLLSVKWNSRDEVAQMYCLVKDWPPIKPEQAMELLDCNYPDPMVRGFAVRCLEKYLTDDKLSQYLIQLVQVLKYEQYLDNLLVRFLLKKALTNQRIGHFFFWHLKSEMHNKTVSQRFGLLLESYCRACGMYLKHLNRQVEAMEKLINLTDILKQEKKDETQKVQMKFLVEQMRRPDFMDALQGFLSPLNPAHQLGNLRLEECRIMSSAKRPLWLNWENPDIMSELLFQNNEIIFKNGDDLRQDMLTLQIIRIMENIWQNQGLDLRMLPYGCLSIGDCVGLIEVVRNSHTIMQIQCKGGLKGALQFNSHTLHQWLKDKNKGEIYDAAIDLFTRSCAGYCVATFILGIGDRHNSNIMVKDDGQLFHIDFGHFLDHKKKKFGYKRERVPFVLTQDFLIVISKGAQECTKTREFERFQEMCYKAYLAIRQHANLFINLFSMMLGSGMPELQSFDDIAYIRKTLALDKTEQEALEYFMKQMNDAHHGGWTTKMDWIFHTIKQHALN
PI3K, sequence (P27986 whole entry partner): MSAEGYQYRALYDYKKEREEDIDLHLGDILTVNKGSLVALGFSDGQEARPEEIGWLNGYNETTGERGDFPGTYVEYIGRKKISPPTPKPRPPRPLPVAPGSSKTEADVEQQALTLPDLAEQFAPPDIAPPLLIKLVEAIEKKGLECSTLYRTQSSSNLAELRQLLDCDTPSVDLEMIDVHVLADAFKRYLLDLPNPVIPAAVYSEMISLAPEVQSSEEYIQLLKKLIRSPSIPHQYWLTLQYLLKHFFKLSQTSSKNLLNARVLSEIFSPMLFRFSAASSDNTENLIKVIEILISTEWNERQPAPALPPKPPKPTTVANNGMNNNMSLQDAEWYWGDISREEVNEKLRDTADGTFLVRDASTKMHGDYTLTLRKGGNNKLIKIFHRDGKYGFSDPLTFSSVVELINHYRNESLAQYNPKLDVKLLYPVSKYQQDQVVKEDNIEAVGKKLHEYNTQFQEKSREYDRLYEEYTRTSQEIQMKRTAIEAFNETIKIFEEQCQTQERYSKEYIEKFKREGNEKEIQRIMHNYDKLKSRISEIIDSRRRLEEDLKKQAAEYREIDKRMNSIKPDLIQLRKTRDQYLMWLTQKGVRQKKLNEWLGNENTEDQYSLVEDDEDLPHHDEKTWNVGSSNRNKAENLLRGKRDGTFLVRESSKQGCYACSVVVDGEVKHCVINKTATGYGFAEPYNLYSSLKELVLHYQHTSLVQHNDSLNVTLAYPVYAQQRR

| Compound | IC50 (prostate line LNCap; Homo sapiens, LNCaP, 72 h) [nM] | IC50 (breast line MDA468; Homo sapiens, 72 h) [nM] | IC50 (PI3K) [nM] | IC50 (prostate line LNCap) [nM] | IC50 (breast line MDA468) [nM] |
| --- | --- | --- | --- | --- | --- |
| Oc1cccc(-c2nc(N3CCOCC3)c3cnn(CCN4CCOCC4)c3n2)c1 [Compound 165] | 3000 | 12000 | 176 | – | – |
| O=C(Nc1ccc(-c2nc(N3CCOCC3)c3cnn(C4CCN(C(=O)OCCF)CC4)c3n2)cc1)Nc1cccnc1 [Compound 879, 2-fluoroethyl 4-(4-morpholin-4-yl-6-{4-[(pyridin-3-ylcarbamoyl)amino]phenyl}-1H-pyrazolo[3,4-d]pyrimidin-1-yl)piperidine-1-carboxylate] | 3.9 | 34 | 12 | – | – |
| O=C(NO)Nc1ccc(-c2nc(N3CCOCC3)c3cnn(-c4ccccc4)c3n2)cc1 [Compound 539, 1-hydroxy-3-[4-(4-morpholin-4-yl-1-phenyl-1H-pyrazolo[3,4-d]pyrimidin-6-yl)phenyl]urea] | 480 | 1100 | 211 | – | – |
| O=C(NO)Nc1ccc(-c2nc(N3CCOCC3)c3cnn(C4CCN(Cc5ccccc5)CC4)c3n2)cc1 [Compound 310, 1-{4-[1-(1-benzylpiperidin-4-yl)-4-morpholin-4-yl-1H-pyrazolo[3,4-d]pyrimidin-6-yl]phenyl}-3-hydroxyurea] | 100 | 1100 | 199 | – | – |
| CN(C)CCCn1ncc2c(N3CCOCC3)nc(-c3ccc4[nH]ccc4c3)nc21 [Compound 160] | 2800 | 15000 | 6000 | – | – |
| CNCCNC(=O)Nc1ccc(-c2nc(N3CCOCC3)c3cnn(C4CCN(C(=O)c5cccnc5)CC4)c3n2)cc1 [Compound 593, 1-[2-(methylamino)ethyl]-3-(4-{4-morpholin-4-yl-1-[1-(pyridin-3-ylcarbonyl)piperidin-4-yl]-1H-pyrazolo[3,4-d]pyrimidin-6-yl}phenyl)urea] | 5000 | 9000 | 45 | – | – |
| CNC(=O)Nc1ccc(-c2nc(N3CCOCC3)c3cnn(C4CCN(C(=O)c5ccc(C)nc5)CC4)c3n2)cc1 [Compound 664, 1-methyl-3-[4-(1-{1-[(6-methylpyridin-3-yl)carbonyl]piperidin-4-yl}-4-morpholin-4-yl-1H-pyrazolo[3,4-d]pyrimidin-6-yl)phenyl]urea] | – | – | 118 | 330 | 270 |
| Cc1ncccc1C(=O)N1CCC(n2ncc3c(N4CCOCC4)nc(-c4ccc5[nH]ccc5c4)nc32)CC1 [Example 200, 6-(1H-indol-5-yl)-1-{1-[(2-methylpyridin-3-yl)carbonyl]piperidin-4-yl}-4-morpholin-4-yl-1H-pyrazolo[3,4-d]pyrimidine] | 750 | 2000 | 2390 | – | – |
| COC(=O)Nc1ccc(-c2nc(N3CCOCC3)c3cnn(C4CCN(C(=O)C(C)C)CC4)c3n2)cc1 [Compound 810, methyl {4-[1-(1-isobutyrylpiperidin-4-yl)-4-morpholin-4-yl-1H-pyrazolo[3,4-d]pyrimidin-6-yl]phenyl}carbamate] | 1300 | 3000 | 2230 | – | – |
| CNS(=O)(=O)c1ccc(-c2nc(N3CCOCC3)c3cnn(C4CCN(Cc5ccccc5)CC4)c3n2)cc1 [Compound 86] | 7200 | 6500 | 4660 | – | – |
| O=C(Nc1ccncc1)Nc1ccc(-c2nc(N3CCOCC3)c3cnn(C4CCN(C(=O)c5cccnc5)CC4)c3n2)cc1 [Compound 591, 1-(4-{4-morpholin-4-yl-1-[1-(pyridin-3-ylcarbonyl)piperidin-4-yl]-1H-pyrazolo[3,4-d]pyrimidin-6-yl}phenyl)-3-pyridin-4-ylurea] | 27 | < 27 | 15 | – | – |
| CCOC(=O)N1CCC(n2ncc3c(N4CCOC[C@H]4C)nc(-c4ccc(NC(=O)NCCF)cc4)nc32)CC1 [Compound 890, ethyl 4-{6-(4-{[(2-fluoroethyl)carbamoyl]amino}phenyl)-4-[(3R)-3-methylmorpholin-4-yl]-1H-pyrazolo[3,4-d]pyrimidin-1-yl}piperidine-1-carboxylate] | 12 | 500 | 4550 | – | – |
| O=C(NCCCO)Nc1ccc(-c2nc(N3CCOCC3)c3cnn(C4CCN(Cc5ccccc5)CC4)c3n2)cc1 [Example 269, 1-{4-[1-(1-benzylpiperidin-4-yl)-4-morpholin-4-yl-1H-pyrazolo[3,4-d]pyrimidin-6-yl]phenyl}-3-(3-hydroxypropyl)urea] | 80 | 700 | 364 | – | – |
| NS(=O)(=O)c1ccc(-c2nc(N3CCOCC3)c3cnn(C4CCN(Cc5ccccc5)CC4)c3n2)cc1 [Compound 85] | 8000 | 9000 | 2280 | – | – |
| Cc1ccc(C(=O)N2CCC(n3ncc4c(N5CCOCC5)nc(-c5ccc6[nH]ccc6c5)nc43)CC2)cn1 [Example 202, 6-(1H-indol-5-yl)-1-{1-[(6-methylpyridin-3-yl)carbonyl]piperidin-4-yl}-4-morpholin-4-yl-1H-pyrazolo[3,4-d]pyrimidine] | 400 | 2000 | 2100 | – | – |
| COCC(=O)N1CCC(n2ncc3c(N4CCOCC4)nc(-c4ccc5[nH]ccc5c4)nc32)CC1 [Example 40] | 800 | 900 | 3750 | – | – |
| O=C(Nc1ccc(-c2nc(N3CCOCC3)c3cnn(C4CCN(CC(F)(F)F)CC4)c3n2)cc1)Nc1ccccn1 [Compound 785, 1-(4-{4-morpholin-4-yl-1-[1-(2,2,2-trifluoroethyl)piperidin-4-yl]-1H-pyrazolo[3,4-d]pyrimidin-6-yl}phenyl)-3-pyridin-2-ylurea] | 3800 | 12000 | 890 | – | – |
| CNC(=O)Nc1ccc(-c2nc(N3CCOCC3)c3cnn(C4CCN(C(=O)N5CCN(C)CC5)CC4)c3n2)cc1 [Compound 578, 1-methyl-3-[4-(1-{1-[(4-methylpiperazin-1-yl)carbonyl]piperidin-4-yl}-4-morpholin-4-yl-1H-pyrazolo[3,4-d]pyrimidin-6-yl)phenyl]urea] | 400 | 700 | 71 | – | – |
| Fc1cc(F)cc(-c2nc(N3CCOCC3)c3cnn(C4CCN(Cc5ccccc5)CC4)c3n2)c1 [Compound 88] | 60000 | 58000 | 2190 | – | – |
| O=C(Nc1ccncc1)Nc1ccc(-c2nc(N3CCOCC3)c3cnn(C4CCN(Cc5cccnc5)CC4)c3n2)cc1F [Compound 352, 1-(2-fluoro-4-{4-morpholin-4-yl-1-[1-(pyridin-3-ylmethyl)piperidin-4-yl]-1H-pyrazolo[3,4-d]pyrimidin-6-yl}phenyl)-3-pyridin-4-ylurea] | 27 | 100 | 35 | – | – |
| NCCNC(=O)Nc1ccc(-c2nc(N3CCOCC3)c3cnn(C4CCN(Cc5ccccc5)CC4)c3n2)cc1 [Compound 512, 1-(2-aminoethyl)-3-{4-[1-(1-benzylpiperidin-4-yl)-4-morpholin-4-yl-1H-pyrazolo[3,4-d]pyrimidin-6-yl]phenyl}urea] | 2000 | 2700 | 14 | – | – |
| O=C(Nc1cc(F)c(-c2nc(N3CCOCC3)c3cnn(C4CCN(C(=O)c5cccnc5)CC4)c3n2)cc1F)NC1CC1 [Compound 468, 1-cyclopropyl-3-(2,5-difluoro-4-{4-morpholin-4-yl-1-[1-(pyridin-3-ylcarbonyl)piperidin-4-yl]-1H-pyrazolo[3,4-d]pyrimidin-6-yl}phenyl)urea] | 1000 | 2200 | 3560 | – | – |
| CCNC(=O)Nc1ccc(-c2nc(N3CCOC(C)C3)c3cnn(C4CCN(C(=O)OC)CC4)c3n2)cc1 (stereo not drawn) [Compound 842, methyl 4-[6-{4-[(ethylcarbamoyl)amino]phenyl}-4-(2-methylmorpholin-4-yl)-1H-pyrazolo[3,4-d]pyrimidin-1-yl]piperidine-1-carboxylate] | 70 | 1000 | 721 | – | – |
| CCNC(=O)Nc1ccc(-c2nc(N3CCOCC3)c3cnn(C4CCN(C(=O)OC)CC4)c3n2)cc1 [Compound 731, methyl 4-(6-{4-[(ethylcarbamoyl)amino]phenyl}-4-morpholin-4-yl-1H-pyrazolo[3,4-d]pyrimidin-1-yl)piperidine-1-carboxylate] | < 27 | 70 | 490 | – | – |
| COC(=O)Nc1ccc(-c2nc(N3CCOCC3)c3cnn(C4CCN(C(=O)c5ccccc5F)CC4)c3n2)cc1 [Compound 687, methyl (4-{1-[1-(2-fluorobenzoyl)piperidin-4-yl]-4-morpholin-4-yl-1H-pyrazolo[3,4-d]pyrimidin-6-yl}phenyl)carbamate] | – | – | 1140 | 250 | 480 |
| CN(C)CCCNC(=O)Nc1ccc(-c2nc(N3CCOCC3)c3cnn(C4CCN(Cc5ccccc5)CC4)c3n2)cc1 [Compound 516, 1-{4-[1-(1-benzylpiperidin-4-yl)-4-morpholin-4-yl-1H-pyrazolo[3,4-d]pyrimidin-6-yl]phenyl}-3-[3-(dimethylamino)propyl]urea] | 650 | 2000 | 158 | – | – |
| O=C(Nc1ccccc1)Nc1ccc(-c2nc(N3CCOCC3)c3cnn(C4CCN(Cc5cccnc5)CC4)c3n2)cc1F [Compound 598, 1-(2-fluoro-4-{4-morpholin-4-yl-1-[1-(pyridin-3-ylmethyl)piperidin-4-yl]-1H-pyrazolo[3,4-d]pyrimidin-6-yl}phenyl)-3-phenylurea] | 70 | 360 | 41 | – | – |
| CC(C)(C)OC(=O)N1CCC(n2ncc3c(N4CCOCC4)nc(-c4ccc(NC(=O)Nc5ccon5)cc4)nc32)CC1 [Compound 882, tert-butyl 4-(6-{4-[(isoxazol-3-ylcarbamoyl)amino]phenyl}-4-morpholin-4-yl-1H-pyrazolo[3,4-d]pyrimidin-1-yl)piperidine-1-carboxylate] | 70 | 490 | 113 | – | – |
| CC(C)(C)OC(=O)N1CCC[C@@H](n2ncc3c(N4CCOCC4)nc(-c4ccc5[nH]ccc5c4)nc32)C1 [Compound 167] | 3000 | 3100 | 890 | – | – |
